What all share (type): cell-based
In assay [1] the test system is HepG2 liver cells. Kind of assay: Insulin- and glucose-stimulated glycogen synthase activity in stable tissue culture cells. The conditions noted are these: insulin and glucose added, in the presence of the inhibitor. An excerpt:
(§1) In these assays measurement of the effectiveness of a given inhibitor is accomplished by the effect of inhibitors on glycogen synthase activity as described in Thomas et al, Anal. Biochem. 25:486-99 (1968), glucose uptake as described in Begun and Ragolia Endocrinology 137: 2441-6 (1996), Claraldi et al, J. Clin. Invest. 96:2820-27 (1995), Hara et al, PNAS 91:7415-19 (1994), Robinson and James, Am. J. Physiol. 263:E383-93(1992), and Sasoaka et al, JBC 270: 10885-92 (1995) and glucose incorporation into glycogen as described in Begun and Ragolia Endocrinology 137: 2441-6 (1996), Sasoaka et al, JBC 270: 10885-92 (1995), and Takata et al, JBC 267:9065-70 (1992).
(§2) Assays for glucose uptake and glycogen synthesis can be conducted as described for cell-based assays generally. To measure glucose uptake and glycogen synthesis, a variety of stable tissue culture cell lines that respond to insulin stimulation by increasing the synthesis of glycogen and increasing the rate of glucose uptake from the medium can be used. These include HepG2 liver cells, CHO-IR cells, and Hirc cells. Under appropriate conditions the addition of insulin and glucose to HepG2 cells stimulates glycogen synthase activity and this stimulation is potentiated in the presence of the GSK3 inhibitor iodotubercidin.

The next assay concerns Drosophila cells. Kind of assay: β-catenin stabilization assay of intracellular GSK3 activity (western blot). Particulars: added to Drosophila cells; detected on a western blot. An excerpt: Other assays that test functional GSK3 also provide a further test of intracellular GSK3 activity. These assays rely on the ability to observe indirect consequences of GSK3 activity within cells. An example of such an assay involves β-catenin stabilization. Cellular GSK3 activity leads to the destabilization of cytosolic pools of β-catenin in certain types of cell. Consequently, inhibition of GSK3 results in β-catenin stabilization and accumulation, which can be detected on a western blot. […] Similarly, LiCl in the cell culture medium causes an increase in intracellular β-catenin levels as described in Stambolic et al, Cur. Biol. 6(12):1664-8 (1996).
In general terms: Immunoblotting shows a protein as a band on a membrane.

The test system of assay [2] is HepG2 liver cells. Kind of assay: Glucose uptake in stable tissue culture cells.
From the text: as §1, §2

As to `Nc1ncnc2c1c(I)cn2[C@@H]1O[C@H](CO)[C@@H](O)[C@H]1O` [iodotubercidin], the “stimulation of glycogen synthase activity by insulin and glucose” value in the assay on HepG2 liver cells [1] is “potentiated”. The β-catenin accumulation entry in the assay with Drosophila cells is recorded as “leads to β-catenin accumulation”. For the same compound, the “response of glucose uptake to insulin, glucose and inhibitor” value with HepG2 liver cells [2] was “as much as six fold”.
